Test results published in patent publication US20240294550A1, “8-OXA-3-AZABICYCLO[3.2.1]OCTANE COMPOUNDS OR SALT THEREOF, AND PREPARATION METHOD AND USE THEREOF” (LITTDD MEDICINES LTD, priority 2021, published 2024).

Columns and labels:
[1] = tested on: LOVO cells; assay: Cell proliferation assay (CellTiter-Glo); type: cell-based; settings: Homo sapiens, 96 hours
Description: The cell proliferation inhibition effect of the compound of the invention was tested using CellTiter-Glo™ cell viability assay kit. This kit uses luciferase as the detector. During the luminescence process, the luciferase requires the participation of ATP. CellTiter-Glo™ reagent was added to the cell culture medium, and the luminescence value was measured. The light signal is proportional to the amount of ATP present in the system, and ATP positively correlates with the number of viable cells present, thus the cell proliferation activity is measured.
Cell culture and seeding: LOVO cells in logarithmic growth phase (human colon carcinoma cells) (ATCC CCL-229) were harvested and counted using a platelet counter. Trypan blue exclusion method was used to detect the cell viability to ensure that the cell viability was above 90%. 90 μL of cell suspension (RPMI1640+10% fetal bovine serum) was added to a 96-well transparent flat-bottom black-wall plate (Thermo, 165305) respectively, and the cell concentration was adjusted to 3000/well/90 μl. Cells in the 96-well plate were incubated overnight at 37° C., 5% CO2 with 95% humidity (Thermo, Model 3100 Series).
Firstly, DMSO was used as the solvent to prepare 10 mM mother solution of the test compounds, and then PBS was used to dilute 100 times to prepare a solution of 10 times of final concentration, the highest concentration was 100 μM. 10 μL solution of the test compounds was added to each well of the 96 well plate inoculated with cells, namely the solution was further diluted 10 times to reach the final concentration of 10 μM. Starting from 10 μM, the final concentration of the test compound was 3-fold serially diluted, with 9 concentrations in total with 3 triplicates for each concentration. The 96 well plates with the test compounds and cells were incubated at 37° C., 5% CO2 and 95% humidity for 96 hours, and then CellTiter Glo analysis was performed.
CellTiter-Glo Reagents (CellTiter Glo R Luminescent Cell Viability Assay, Promega, G7572) were melted and the 96-well plates were equilibrated to room temperature for 30 minutes. An equal volume of CellTiter-Glo solution was added to each well, and the cells were lysed by shaking on the fixed orbit shaker for 5 minutes. The assay plates were left at room temperature for 20 minutes to stabilize the luminescence signal, and the luminescence signals were read using the SpectraMax multi-labeled microplate detector (MD, M3).
Data were analyzed using GraphPad Prism 7.0 software, fitted with non-linear S-curve regression to derive the dose-response curves, and IC50 values were calculated therefrom.
Cell survival rate (%)=(LumDrug to be tested−LumCulture medium control)/(LumCell control−LumCulture medium control)×100%

[2] = Metabolic stability in mouse liver microsomes; type: in vitro ADME, CD-1 mice
Description: (§1) Drug-like Properties: Concepts, Structure Design and Methods: from ADME to Toxicity Optimization. […] Screen. […] After incubation for appropriate time (such as 5, 10, 20, 30 and 60 minutes), samples were collected, and an appropriate termination solution (glacial acetonitrile containing 200 ng/mL tolbutamide and 200 ng/mL labetalol (i.e. acetonitrile at 4° C.)) was added to stop the reaction. Sample treatment (n=1): each appropriate sample was added, vortexed and centrifuged at high speed. The supernatants were collected, and detected the substrate by HPLC-MS/MS. The peak area at the 0 min was set as 100%. The peak areas at other time points were converted to percentages of the remaining amount. The natural logarithms of the percentage of remaining amount at each time point was plotted against the incubation time, and the slope (−k) was calculated. Then, Clint (μL/min/mg) and half-life (T½, min) of the compounds were calculated following the equation: Inherent clearance rate (Clint)=(k*Volume of incubation solution)/Mass of liver microsomes.

[3] = Metabolic stability in human liver microsomes; type: in vitro ADME
Description: as §1

C[C@@H]1COCCN1c1cc(N2CC3CCC(C2)O3)nc2c(-c3cc[nH]n3)cnn12 [Example 1, 3-(7-((R)-3-methylmorpholino)-3-(1H-pyrazol-3-yl)pyrazolo[1,5-a]pyrimidin-5-yl)-8-oxa-3-azabicyclo[3.2.1]octane]
IC50 [1]: 304 nM | half-life at 1 μM ([2]; CD-1, 1 μM compound): 58.3 min | microsomal CLint at 1 μM ([2]; CD-1, read-out: CLint(mic)): 23.8 µL/min/mg | Remain % (T = 60 min) ([2]; T = 60 min): 44.4% | half-life at 1 μM ([3]; 1 μM compound): 118 min | Remain % (T = 60 min) ([3]; T = 60 min): 65.0% | microsomal CLint at 1 μM ([3]; read-out: CLint(mic)): 11.7 µL/min/mg
